From BindingDB's records for PubMed 35261239 (Bristol-Myers Squibb Company, 2022) come the findings set out here.

The target in this test is TGF-beta-activated kinase 1 (MAP3K7). Put plainly: Inhibition of TAK (unknown origin).

By IC50 is commonly meant the concentration that gives 50% inhibition. The low end stands for higher potency, the high end for lower potency. Molecule `COC(=O)Nc1cc(-c2cnc(OC[C@@](C)(N)CC(C)C)c(C#N)c2)ccn1` returned an IC50 of 260 nM.

In turn, `COC(=O)Nc1cc(-c2cnc(OC[C@@](C)(N)CC(C)C)c(Cl)c2)ccn1` came in with an IC50 of 120 nM.
